Where “and” joins values, the source holds several entries; their conditions need not be identical. Identical values can stand only once.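 How tested: cells in 96-well plates exposed to compound for 48 hours at five concentrations. GI50 is the concentration that inhibits growth by half. At the TGI there is no net growth.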
How the values were obtained:
Assay in all cases: NCI anticancer screen, dose series, 48 h
NCI-H460 lung = system: NCI-H460 lung
U251 CNS = system: U251 CNS
NCI/ADR-RES ovarian = system: NCI/ADR-RES ovarian
SN12C renal = system: SN12C renal
EKVX NSCLC = system: EKVX NSCLC
SK-MEL-2 melanoma = system: SK-MEL-2 melanoma
OVCAR-5 ovarian = system: OVCAR-5 ovarian
HOP-62 NSCLC = system: HOP-62 NSCLC
SF-268 CNS = system: SF-268 CNS
SW-620 colon = system: SW-620 colon

SMILES	GI50 (NCI-H460 lung)	TGI (NCI-H460 lung) [µM]	GI50 (U251 CNS)	TGI (U251 CNS)	GI50 (NCI/ADR-RES ovarian)	TGI (NCI/ADR-RES ovarian) [µM]	GI50 (SN12C renal)	TGI (SN12C renal) [µM]	GI50 (EKVX NSCLC)	TGI (EKVX NSCLC) [µM]	GI50 (SK-MEL-2 melanoma)	TGI (SK-MEL-2 melanoma)	GI50 (OVCAR-5 ovarian)	TGI (OVCAR-5 ovarian) [µM]	GI50 (HOP-62 NSCLC)	TGI (HOP-62 NSCLC)	GI50 (SF-268 CNS)	TGI (SF-268 CNS) [µM]	GI50 (SW-620 colon)	TGI (SW-620 colon) [µM]
C[C@@H](NC(=O)Cc1cc(F)cc(F)c1)C(=O)N[C@@]1(C)N=C(c2ccccc2)c2ccccc2N(C)C1=O	40400 nM	> 100	> 84800 nM	> 100 µM	31900 nM	> 90.7	32000 nM	97.5	30200 nM	> 85.8	> 100000 nM	> 100 µM	> 83500 nM	> 100	64.7 µM	> 100 µM	30900 nM	> 100	94400 nM	> 100
O=C1c2ccccc2-c2cc3ccccc3c(=O)n21	–	> 100	–	–	–	> 100	–	> 100	–	> 100	–	> 100 µM	–	> 100	–	–	–	> 100	–	> 100
COC(=O)[C@H](Cc1ccccc1)NC(=O)c1csc([C@@H](C[C@H](C(C)C)N(C)C(=O)[C@@H](NC(=O)[C@H]2CCCCN2C)C2CC2)OC(C)=O)n1	54.6 nM	> 25	66.9 nM	> 25 µM	2050 nM	> 25	103 nM	> 25	119 nM	> 25	492 nM	> 25 µM	316 nM	> 25	0.0749 µM	> 25 µM	111 nM	> 25	16.7 nM	> 25
CCN(CC)CCC(=O)Nc1ccc(Cn2nnc3c2C(=O)c2nnn(Cc4ccc(NC(=O)CCN(CC)CC)cc4)c2C3=O)cc1	356 nM	1.46	254 nM	0.688 µM	> 100000 nM	> 100	184 nM	0.385	1540 nM	3.05	220 nM	0.571 µM	994 nM	3.34	1.75 µM	3.42 µM	338 nM	1.51	395 nM	1.75
COc1ccc(C[C@H]2C[C@@H](O)[C@@H](C)C/C=C/Cc3cccc(O)c3C(=O)O2)cn1	22700 nM	96.3	17900 nM	36.1 µM	19100 nM	48.8	19400 nM	43.9	32100 nM	> 100	14700 nM	34.5 µM	19000 nM	37.2	18.6 µM	40.2 µM	15900 nM	53.5	31600 nM	> 100
CO[C@H]1C=C[C@]23c4cc5c(cc4CN(CC2O)[C@@H]3C1)OCO5 (some centres undefined)	–	36.1	–	38.3 µM	–	58.8	–	29.4	–	52.2	–	6.31 µM	–	> 100	–	–	–	32.7	–	> 100
COc1ccc2c(c1O)[C@@]13C=C(O)C(=O)C=C1[C@@H](C2)N(C)CC3	–	> 100	–	> 100 µM	–	> 100	–	> 100	–	> 100	–	> 100 µM	–	> 100	–	> 100 µM	–	> 100	–	–
CC1Cc2c(N(C)C)ncnc2N(C)c2ccc(Cl)cc21 (centres undefined)	3860 nM	46.6	4990 nM	29.1 µM	2400 nM	23.9	10200 nM	37.1	2770 nM	> 100	5880 nM	57.3 µM	–	–	4.81 µM	73.4 µM	8090 nM	> 100	3350 nM	> 100
Cn1c(=O)n(-c2ccc(C(C)(C)C#N)cc2)c2c3cc(-c4cnc5ccccc5c4)ccc3ncc21	< 10 nM and 5.81 nM	> 100	< 11.7 nM and 5.99 nM and < 10 nM	10.4 µM and > 10 µM and > 100 µM	21.2 nM and 8.49 nM and 19.7 nM	> 100	10.1 nM and 4.61 nM and < 10 nM	> 100	15.2 nM and 5.73 nM and < 12 nM	–	12 nM and 5.98 nM and 13.7 nM	0.0505 µM and 0.292 µM and 0.0744 µM	21.3 nM and 7.59 nM and 15.9 nM	> 100	< 0.01 µM and 0.00605 µM	11.9 µM and > 2.72 µM	12.6 nM and 6.57 nM and < 10.9 nM	> 100	16.3 nM and 7.34 nM and < 11.6 nM	> 100
Cc1ccc(NCSc2ccc(Cl)cc2)cc1	> 100000 nM	> 100	17800 nM	> 100 µM	> 100000 nM	> 100	7010 nM	> 100	31400 nM	> 100	> 100000 nM	> 100 µM	> 100000 nM	> 100	30.7 µM	> 100 µM	13100 nM	> 100	> 100000 nM	> 100
CC[C@@]1(OC(=O)CN)C(=O)OCc2c1cc1n(c2=O)Cc2cc3cc(N)ccc3nc2-1	< 10 nM	–	< 10 nM	–	< 10.3 nM	0.125	< 10 nM	> 100	465 nM	> 100	< 44.1 nM	0.421 µM	150 nM	–	< 0.01 µM	0.847 µM	< 10 nM	–	23.1 nM	> 100
CCCC/C(=N\N=C(N)N)c1ccc(F)cc1	3900 nM	14.7	2360 nM	10.2 µM	2380 nM	8.29	4370 nM	17.3	4500 nM	25.5	3090 nM	9.4 µM	5080 nM	17.8	3.81 µM	15.8 µM	5580 nM	20.8	–	–
CC[C@]12C=CCN3CC[C@]4(C(=C(C(=O)OC)C1)Nc1cc(O)ccc14)[C@@H]32	18900 nM	38.5	15600 nM	36.9 µM	14400 nM	33.6	15400 nM	29.7	24600 nM	> 100	18200 nM	48.6 µM	19800 nM	57	17.2 µM	38.9 µM	20700 nM	53.2	16300 nM	36.6
O=C(/C=C/N1CCN(c2cccc(C(F)(F)F)c2)CC1)c1ccc(Cl)cc1Cl	30900 nM	97.3	26100 nM	59.8 µM	21700 nM	50.8	21300 nM	40.6	27900 nM	65.4	37500 nM	> 100 µM	30600 nM	> 100	19 µM	35.4 µM	28600 nM	88.8	38800 nM	> 100
CC(C)(C)n1cc(-c2ccnc(NCCNS(=O)(=O)c3ccc(Br)cc3)c2)c(-c2cccc(O)c2)n1	1930 nM	3.71	1530 nM	3.29 µM	2130 nM	4.99	1720 nM	3.2	2270 nM	6.88	1930 nM	3.99 µM	1780 nM	3.53	1.5 µM	3 µM	2040 nM	5.96	1720 nM	3.46
CC(CC(=O)O)(CC(=O)O)C(=O)O	–	> 100	–	> 100 µM	–	> 100	–	> 100	–	> 100	–	> 100 µM	–	> 100	–	> 100 µM	–	> 100	–	> 100
CN1C(=O)c2cc(Cl)nc3c(NC(=O)c4cccc(Cl)c4)c(Cl)c(NC(=O)c4cccc(Cl)c4)c1c23	2340 nM	5.17	1820 nM	3.24 µM	3380 nM	17.3	1840 nM	3.48	1850 nM	4.21	2190 nM	4.35 µM	12800 nM	30.1	–	–	1830 nM	3.73	1780 nM	3.93
CCOP(=O)(OCC)/C(C#N)=C\c1cccc2ccccc12	–	> 100	–	> 100 µM	–	> 100	–	> 100	–	> 100	–	> 100 µM	–	> 100	–	> 100 µM	–	64.9	–	> 100
COc1ccccc1Cn1cc2c(c1)-c1oncc1CC2	334 nM	4.75	503 nM	39 µM	529 nM	3.7	728 nM	> 100	830 nM	> 94.2	4430 nM	72.7 µM	756 nM	> 74.1	1.02 µM	> 100 µM	1210 nM	> 75.1	351 nM	> 100
CC(CS(=O)(=O)Cc1ccccc1)C(N)=O (centres undefined)	–	> 100	–	> 100 µM	–	> 100	–	> 100	–	> 100	–	> 100 µM	–	> 100	–	> 100 µM	–	> 100	–	> 100
COc1cccc(-c2nn(-c3ccccc3)cc2-c2ccnc(NCCNC(=O)Nc3ccc(Cl)c(Cl)c3)c2)c1	1880 nM	4.33	2650 nM	7.73 µM	2080 nM	5.64	2390 nM	5.96	2480 nM	16.7	2090 nM	5.17 µM	2250 nM	10.1	3.39 µM	12.7 µM	2430 nM	10.3	2700 nM	11.1
COc1c(O)c(OC)c(C(=O)/C=C/c2ccccc2)c(O)c1OC	–	45.8	–	> 100 µM	–	42.6	–	32.6	–	> 100	–	61.2 µM	–	> 100	–	–	–	> 100	–	66.2
O=C(Oc1c(I)ccccc1=O)c1ccc([N+](=O)[O-])cc1	–	23.5	–	57.9 µM	–	> 100	–	67.9	–	28.3	–	45.1 µM	–	> 100	–	> 100 µM	–	39.8	–	83.6
Cc1cc(CS(=O)(=O)/C=C/c2ccccc2[N+](=O)[O-])c(CS(=O)(=O)/C=C/c2ccccc2[N+](=O)[O-])cc1C	–	> 100	–	71.3 µM	–	> 100	–	> 100	–	> 100	–	36.5 µM	–	> 100	–	49.4 µM	–	> 100	–	> 100
c1ccc2c(c1)nc(NCCN1CCNCC1)c1c3ccccc3[nH]c21	221 nM	1.14	377 nM	1.94 µM	1520 nM	7.63	190 nM	1.18	742 nM	4.38	1410 nM	2.89 µM	477 nM	3.15	0.404 µM	2.2 µM	390 nM	2.01	250 nM	2.54
CN1CCCC1c1cccnc1.O=C(O)c1ccccc1O.O=C([O-])c1ccccc1[OH2+].O=C([O-])c1ccccc1[OH2+].O=C([O-])c1ccccc1[OH2+].[Mn+2] (centres undefined)	–	–	> 100000 nM	> 100 µM	> 100000 nM	> 100	> 100000 nM	> 100	> 100000 nM	> 100	> 100000 nM	> 100 µM	63500 nM	> 100	> 100 µM	> 100 µM	22300 nM	73.4	42400 nM	> 100
O=C1c2cccnc2C(=O)c2c1c(C(=O)OCCCN1CCOCC1)c1ccccn21	–	–	–	–	< 10 nM	2.21	< 10 nM	1.82	75.8 nM	1.75	20.5 nM	0.0569 µM	79.4 nM	4.73	–	–	< 10 nM	10.7	< 10 nM	1.75
COc1ccccc1C(=O)c1cnc(NC2CCN(S(C)(=O)=O)CC2)nc1N	2850 nM	> 25	4060 nM	> 25 µM	> 25000 nM	> 25	5480 nM	> 25	–	–	9930 nM	> 25 µM	4920 nM	> 25	7.73 µM	> 25 µM	7350 nM	> 25	4330 nM	> 25

From PubChem BioAssay (NCI)
